Experimental data: paper PMC12523804, “Evaluation of molecular mechanisms of (Z)-3-(pentadec-10′-enyl)-catechol (litreol) and synthetic derivatives as inhibitors of human leukotriene biosynthesis” (Redox Biology, 2025)

What was measured:
5-LO/FLAP = molecular target: T1, 5-LO/FLAP (Homo sapiens, UniProt P09917); assay: Subcellular localization of 5-LO and FLAP by immunofluorescence microscopy in HEK293 cells; type: cell-based; conditions: HEK293 cells expressing 5-LO and FLAP, 3 μM (Fig. 4D) or 10 μM (method)
T1 construct: expressed in transfected cells; host or cells: HEK-293, stably transfected
T1 sequence (P09917 1-674): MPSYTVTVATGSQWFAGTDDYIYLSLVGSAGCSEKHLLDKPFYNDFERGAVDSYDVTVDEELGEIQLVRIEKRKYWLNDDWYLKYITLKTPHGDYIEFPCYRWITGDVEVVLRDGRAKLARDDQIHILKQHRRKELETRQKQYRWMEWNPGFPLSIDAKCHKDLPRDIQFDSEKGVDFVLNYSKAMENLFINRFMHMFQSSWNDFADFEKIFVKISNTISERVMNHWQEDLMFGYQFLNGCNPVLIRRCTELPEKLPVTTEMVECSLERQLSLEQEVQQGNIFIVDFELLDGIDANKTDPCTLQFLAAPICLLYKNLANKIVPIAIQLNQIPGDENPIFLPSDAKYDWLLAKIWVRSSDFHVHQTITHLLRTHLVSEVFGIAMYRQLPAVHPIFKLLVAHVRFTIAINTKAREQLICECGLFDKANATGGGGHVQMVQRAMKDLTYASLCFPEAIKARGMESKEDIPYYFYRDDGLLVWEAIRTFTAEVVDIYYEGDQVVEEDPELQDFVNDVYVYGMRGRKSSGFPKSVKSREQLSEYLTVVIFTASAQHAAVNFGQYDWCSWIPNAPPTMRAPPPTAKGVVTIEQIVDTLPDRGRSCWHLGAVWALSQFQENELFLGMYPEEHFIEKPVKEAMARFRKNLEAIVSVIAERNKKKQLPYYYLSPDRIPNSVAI
Procedure: Subcellular localization of 5-LO and FLAP was analyzed by immunofluorescence (IF) microscopy. In brief, HEK-293 cells expressing 5-LO/FLAP were seeded onto acid-washed (50 % sulfuric acid) and poly-L-lysine (0.01 %)-coated glass coverslips and cultured for 48 h at 37 °C until ∼60 % confluency. Cells were pre-incubated with 10 μM of compounds or vehicle (0.1 % DMSO) for 10 min before stimulation with 2.5 μM A23187 for 20 min at 37 °C. After fixation with 4 % paraformaldehyde solution, followed by permeabilization by using 50 mM ammonium chloride and acetone (3 min, 4 °C), cells were incubated with 10 % non-immune goat serum blocking solution for 1 h. Then, cells were incubated over night with mouse monoclonal anti-5-LO antibody (1:100) and rabbit polyclonal anti-FLAP antibody ([…]). The coverslips were intensively washed with PBS before staining with the fluorophore-labeled secondary antibodies Alexa Fluor 488 goat anti-rabbit (1:500) and Alexa Fluor 555 goat anti-mouse (1:500) for 20 min in the dark. The coverslips were mounted on glass slides with Mowiol containing 2.5 % n-propyl gallate and 4,6-diamidin-2-phenylindol (DAPI; Invitrogen, Carlsbad, CA), a staining for nuclear DNA. Samples were analyzed by a Zeiss Axio-vert 200 M microscope, and a Plan Neofluar _ 100/1.30 Oil (DIC III) objective (Carl Zeiss, Jena, Germany). […]

intracellular Ca2+ = assay: Intracellular Ca2+ measurements in PMNL (Fura-2); type: cell-based, human; conditions: 1 μM compound
Procedure: PMNL (10^7 x ml PG buffer) were pre-stained with Fura-2/AM (2 μM) for 45 min at 37 °C in the dark. After two washing steps, cells were resuspended in PG buffer containing 0.1 % BSA at a density of 5 × 10^6/mL. 100 μL of the cell suspension was transferred into a 96-well plate and pre-incubated for 10 min at 37 °C with compound or vehicle (1 % DMSO), and 2 min prior stimulation 1 mM CaCl2 was added, following addition of 0.1 μM fMLP or 2 μM ionomycin as a positive control for Ca^2+ influx. The signal was monitored in a thermally (37 °C) controlled NOVOstar microplate reader (BMG Labtechnologies GmbH, Offenburg, Germany) (emission at 510 nm, excitation at 340 nm (Ca^2+-bound Fura-2) and 380 nm (free Fura-2). After cell lysis with Triton X-100 the maximal fluorescence signals were monitored and after chelating Ca^2+ with 10 mM EDTA the minimal fluorescence signals. The concentration of Ca^2+ was calculated from the ratio of the signals at 340 and 380 nm according to Grynkiewicz G et al..

ERK = assay: Western blot of ERK phosphorylation; type: cell-based, human; conditions: for fMLP-induced activation (phosphorylation) of ERK: PMNL, 1 μM compound, 1 μM fMLP
Procedure: (§1) Human polymorphonuclear leukocytes (PMNLs; 50 × 10^6), isolated from whole blood, were resuspended in 1 mL of cold PGC buffer. Briefly, neutrophils were pre-incubated for 15 min at 37 °C with test compounds (1 μM). […] The samples were subsequent centrifuged (1200g, 10 min) and the pellets were resuspended in 100 μL od SDS-PAGE loading buffer (2x) (Tris 1 M pH 8, EDTA 0.2 M, 10 % SDS, 10 % mercaptoethanol). Correct protein loading on the gels and transfer of proteins to the nitrocellulose membrane were confirmed by Ponceau staining. Membranes with transferred proteins were incubated overnight with primary antibodies in 1x Tris Buffered Saline (TBS) with 1 % Casein (Biorad- #1610782). Membranes were then washed and incubated with horseradish peroxidase-conjugated secondary antibodies for 1 h at room temperature. Blots were developed using enhanced chemiluminescence detection reagents ECL (Immobilion ECL Ultra Western HRP Substrate - Cat# WBULS0500 Millipore) and acquired using ChemiDoc Imaging System (BioRad). Antibody recognizing phosphorylated p38-MAPkinase, pERK, ERK, NfKB were from Cell Signalling Technology (Boston, MA) and used at 1:1000 dilution. Secondary antibodies were purchased from Biorad (170–6515; 170–6516) and used at 1:2000 diluition.

p38 MAPK = assay: Western blot of p38 MAPK phosphorylation; type: cell-based, human; conditions: for fMLP-induced activation (phosphorylation) of p38 MAP kinase: PMNL, 1 μM compound, 1 μM fMLP
Procedure: as §1

5-LO = test system: 5-LO; parameters: method as in PMID 32220788; conditions: read-out: IC50 against 5-LO; cited from earlier work

Row | Compound | A23187-induced 5-LO translocation / colocalization with FLAP (5-LO/FLAP) | intracellular Ca2+ concentrations (intracellular Ca2+) | fMLP-induced activation (phosphorylation) of ERK (ERK) | fMLP-induced activation (phosphorylation) of p38 MAP kinase (p38 MAPK) | IC50 (5-LO) [µM] | phosphorylation and expression of ERK (Western blot) (ERK; LPS stimulation) | phosphorylation and expression of p38 MAPK (Western blot) (p38 MAPK; LPS stimulation)
1 | CCCCCCCCCCCCCCCc1cccc(O)c1O [CS, 3-n-pentadecylcatechol] | not successful | Neither CS nor CI caused significant changes | did not show significant effects | did not show significant effects | 2.74 | – | –
2 | CCCC/C=C\CCCCCCCCCc1cccc(O)c1O [CI, (Z)-3-(pentadec-10′-enyl)-catechol] | able to block | Neither CS nor CI caused significant changes | inhibited | inhibited | 2.09 | significantly inhibited | significantly inhibited
